Measurements from paper PMC7697888, “Comprehensive Set of Tertiary Complex Structures and Palmitic Acid Binding Provide Molecular Insights into Ligand Design for RXR Isoforms” (International Journal of Molecular Sciences, 2020).
No end group written: not given here. *: point of attachment. Biotin = O=C1N[C@H]2[C@H](CS[C@H]2CCCCC(=O)*)N1

What was measured:
[1] = tested on: all RXR subtypes; design: method as in PMID 9205071, PMID 26030625, PMID 27151148; details: read-out: EC50 activating all RXR subtypes; cited from earlier work
[2] = tested on: RXR; assay: Gal4 hybrid reporter gene assays, competition with bexarotene / antagonist UVI3003 (isoform not specified); format: cell-based, human; details: UVI3003 at 1 µM; MA, PA and SA at 200 µM
Method: The Gal4 hybrid reporter gene assays for RXRα, RXRβ and RXRγ were performed as described previously using the Gal4-fusion receptor plasmids pFA-CMV-hRXRα-LBD (NR2B1, UniProt entry: P19793, aa 225–462), pFA-CMV-hRXRβ-LBD (NR2B2, UniProt entry: P28702-1, aa 294–533) and pFA-CMV-hRXRγ-LBD (NR2B3, UniProt entry: P48443-1, aa 229–463), which code for the hinge region and LBD of the canonical RXR isoform. pFR-Luc (Stratagene, San Diego, CA, USA) as the reporter plasmid and pRL-SV40 (Promega, Madison, WI, USA) as the internal control were used. HEK293T cells were grown in DMEM high-glucose medium (supplemented with 10% fetal calf serum (FCS), sodium pyruvate (1 mM), penicillin (100 U/mL) and streptomycin (100 μg/mL)) at 37 °C and 5% CO2, and seeded in 96-well plates (3.0 × 10^4 cells/well) on the day before transfection. Right before transfection, medium was changed to Opti-MEM without supplements and cells were transiently transfected using the Lipofectamine LTX reagent (Invitrogen, Carlsbad, CA, USA) according to the manufacturer’s protocol with pFR-Luc (Stratagene), pRL-SV40 (Promega) and the respective pFA-CMV-hRXR-LBD clone. After 5 h of incubation, medium was changed to Opti-MEM (supplemented with penicillin (100 U/mL) and streptomycin (100 μg/mL)) additionally containing 0.1% DMSO and the respective test compounds or 0.1% DMSO alone as the untreated control. After overnight incubation (12–14 h), cells were assayed for luciferase activity using the Dual-Glo luciferase assay system (Promega) according to the manufacturer’s protocol on a Tecan Spark M10 luminometer (Tecan Deutschland GmbH, Crailsheim, Germany). Each sample was tested in at least three biologically independent repeats in duplicates. Data were normalized for transfection efficiency and cell growth by division of firefly luciferase data by Renilla luciferase data and multiplying by 1000 to obtain relative light units (RLUs). Fold activation denotes the mean RLU of test compounds at a respective concentration divided by the mean RLU of untreated control. […]

[3] = tested on: RXRα; design: method as in PMID 15073272; details: cited from earlier work
[4] = biological target: T1, RXRα ligand-binding domain (NR2B1, aa 223–462) (human, UniProt P19793 223-462); assay: crystal structure; sitting drop vapor diffusion at 20 °C; RXR LBD (10–13 mg/mL) with GRIP-1 peptide and palmitic acid (carried over from E. coli for RXRα, exogenously added for RXRβ and RXRγ); details: both partners purified
T1 construct: Cloned in pNIC28-Bsa4; Palmitic acid carried over from E. coli sat in the ligand pocket in the crystal; also called RXRα LBD; retinoid X receptor α; not shown: histidine tag, N-terminal, cleaved
T1 sequence (looked up): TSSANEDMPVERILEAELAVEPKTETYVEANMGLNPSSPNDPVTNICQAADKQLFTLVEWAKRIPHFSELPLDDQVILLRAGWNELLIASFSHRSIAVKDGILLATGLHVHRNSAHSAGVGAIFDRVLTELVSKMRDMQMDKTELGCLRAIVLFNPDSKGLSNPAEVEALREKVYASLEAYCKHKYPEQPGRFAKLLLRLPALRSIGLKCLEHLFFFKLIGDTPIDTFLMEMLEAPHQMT

[5] = biological target: T2, RXRγ ligand-binding domain (NR2B3, aa 233–463) (human, UniProt P48443 233-463); assay: as above; details: both partners purified
T2 construct: Cloned in pNIC28-Bsa4; Crystallised with exogenously added palmitic acid; also called RXRγ LBD; not shown: histidine tag, N-terminal, cleaved
T2 sequence (looked up): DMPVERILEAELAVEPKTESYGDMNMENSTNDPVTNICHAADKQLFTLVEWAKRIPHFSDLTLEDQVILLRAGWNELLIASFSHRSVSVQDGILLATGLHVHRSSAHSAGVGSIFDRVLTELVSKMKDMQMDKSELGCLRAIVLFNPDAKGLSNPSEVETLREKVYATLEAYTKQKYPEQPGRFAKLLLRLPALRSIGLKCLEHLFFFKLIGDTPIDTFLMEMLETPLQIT

[6] = biological target: T3, RXRβ ligand-binding domain (NR2B2, aa 298–533) (human, UniProt P28702 298-533); assay: as above; details: both partners purified
T3 construct: Cloned in pNIC28-Bsa4; Crystallised with exogenously added palmitic acid; also called RXRβ LBD; not shown: histidine tag, N-terminal, cleaved
T3 sequence (looked up): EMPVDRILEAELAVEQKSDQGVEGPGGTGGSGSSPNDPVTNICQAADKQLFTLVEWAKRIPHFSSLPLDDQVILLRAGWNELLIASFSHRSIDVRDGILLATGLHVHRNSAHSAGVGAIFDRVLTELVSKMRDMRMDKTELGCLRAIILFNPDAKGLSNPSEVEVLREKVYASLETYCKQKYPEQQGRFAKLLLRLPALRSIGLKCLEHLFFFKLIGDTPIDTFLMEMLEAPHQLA

[7] = biological target: T4, sGFP-RXRα LBD (aa 225–462) (human, UniProt P19793 225-462); assay: AlphaScreen or HTRF; 12 nM sGFP-RXRα LBD (acceptor), 12 nM biotin-SRC-1 peptide on terbium cryptate-streptavidin (donor); 25 mM HEPES pH 7.5, 150 mM KF, 5% glycerol, 0.1% CHAPS, 5 mM DTT, 1% DMSO; 2 h at room temperature; with myristic, palmitic or stearic acid at varying concentrations, with or without 0.3 µM bexarotene; SR11237 as positive control; details: both partners purified
T4 construct: also called recombinant RXRα LBD fused to N-terminal superfolder green fluorescent protein; source: recombinant; not shown: superfolder green fluorescent protein (sGFP), N-terminal, kept
T4 sequence (looked up): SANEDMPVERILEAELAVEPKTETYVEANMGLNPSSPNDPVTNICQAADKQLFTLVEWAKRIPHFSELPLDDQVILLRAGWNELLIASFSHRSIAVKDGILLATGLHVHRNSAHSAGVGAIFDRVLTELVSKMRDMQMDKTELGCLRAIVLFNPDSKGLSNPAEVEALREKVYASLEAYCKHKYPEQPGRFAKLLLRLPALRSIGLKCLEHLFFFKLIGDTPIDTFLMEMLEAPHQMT

CC1=C(/C=C/C(C)=C\C=C\C(C)CC(=O)O)C(C)(C)CCC1 (stereo not drawn) [9-cis-13,14-dihydroretinoic acid]
EC50 [1]: ~0.1 µM

CC1=C(/C=C/C(C)=C\C=C\C(C)=C\C(=O)O)C(C)(C)CCC1 [9-cis-retinoic acid]
EC50 [1]: ~0.1 µM

CCCCCOc1cc2c(cc1-c1cc(/C=C/C(=O)O)ccc1O)C(C)(C)CCC2(C)C [UVI3003, reference compound]
reversal of RXR agonistic effect of MA, PA and SA [2]: fully reversed

CCCCC/C=C\C/C=C\C/C=C\C/C=C\CCCC(=O)O [arachidonic acid]
EC50 [3]: ~10 µM

CC/C=C\C/C=C\C/C=C\C/C=C\C/C=C\C/C=C\CCC(=O)O [docosahexaenoic acid]
EC50 [3]: ~10 µM

B1: glucocorticoid receptor interacting protein 1 (GRIP-1) co-regulator peptide (peptide)
peptide: KHKILHRLLQDSSY
notes: NCOA2/TIF2) with an LxxLL box; last printed residue of the peptide; also called GRIP-1 peptide
binding result [4]: binds
binding result [5]: binds
binding result [6]: binds

B2: SRC-1-derived peptide (steroid receptor co-activator 1) (peptide)
peptide: Biotin-CPSSHSSLTERHKILHRLLQEGSPS
notes: NCOA1), contains the consensus motif LxxLL; Coupled through its biotin to terbium cryptate-streptavidin conjugate (FRET donor); source: bought: Eurogentec Deutschland GmbH; not shown: biotin, N-terminal, kept
binding result [7]: binds
